Measurements published in patent US20180362961A1, “METHODS AND COMPOSITIONS FOR ENHANCED NUCLEASE-MEDIATED GENOME MODIFICATION AND REDUCED OFF-TARGET SITE EFFECTS” (Danisco US Inc., priority 2015, published 2018).
Where two headings read alike, the source gives them in different places.

What was measured:
[1] = test system: Yarrowia lipolytica cells; experiment: Colony PCR of the CAN1 locus to determine frequency of HDR at Cas9/gRNA double-strand breaks; format: cell-based; conditions: for Fold HDR over untreated (±SEM) / HDR Frequency (±SEM): pRF303, Can1-1 target site, with editing template
Method: To determine the frequency of HDR at the targeted double-strand breaks generated by Cas9/gRNA at the Can1-1 target site Yarrowia colony PCR of the CAN1 locus (SEQ ID NO: 40) (primers used, […], forward (SEQ ID NO: 38) and […], reverse (SEQ ID NO: 39)) was performed using standard techniques. If the CAN1 locus was unmodified or contained a small indel generated by NHEJ the colony PCR result would give a band similar in size to the WT CAN1 locus at an apparent size of 2125 bp (SEQ ID NO: 40). If the Cas9/gRNA generated double-strand break had been repaired using the editing templates the PCR would generate a smaller CAN1 locus product 392 bp indicating the deletion of the entire open-reading frame (SEQ ID NO: 41). Colony PCR was performed on all canavanine resistant colonies from cells transformed with pRF303 in the presence of editing template and the fraction of cells where the Cas9/gRNA generated double-strand break was repaired via HDR with the editing template and various Scr-7 treatment schemes was determined (Table 1).

[2] = test system: Yarrowia lipolytica cells; experiment: Relative copy number analysis (qPCR) of CAN1 fragment for off-target insertion of editing template by NHEJ; format: cell-based; conditions: for Fraction of cells with single copy of CAN1 / Fraction of cells with ≥2 copies of CAN1: HDR-positive colonies
Method: An additional complication of repair of Cas9/gRNA generated double-stranded breaks using editing template is the possibility that the editing template can be incorporated by the NHEJ pathway at other regions of DNA damage. In order to determine the frequency at which this occurs in the cells treated with editing templates under the three different Scr-7 treatments, relative copy number analysis was performed looking for a 62 bp fragment of the CAN1 locus present in both the chromosome and the editing template (SEQ ID NO: 42). Relative copy number analysis was performed on colonies from cells treated with pRF303 (SEQ ID NO: 24) and linear editing template (SEQ ID NO: 34) under all three treatment conditions. If the editing template is only incorporated during the HDR of the Cas9/gRNA double strand break at the CAN1 locus (SEQ ID NO: 35) the cell will only carry a single copy of the copy number analysis fragment (SEQ ID NO: 42). However, if the cell incorporates additional copies of the editing template elsewhere in the genome due to the activity of the NHEJ pathway additional copies of the fragment will be present and the cell will return a higher relative copy number. Briefly, genomic DNA was isolated using standard techniques from colonies that scored positive for HDR of the Can1-1 Cas9/gRNA targeted double strand break. Genomic DNA was normalized to 5 ng/μl. 1 μl of the normalized genomic DNA from each colony was added to three replicate qPCR reactions for both the CAN1 locus (SEQ ID NO: 42), (primers used, AGCGCCAAACCCAAAGC, forward (SEQ ID NO: 43), […], reverse (SEQ ID NO: 44), and 6FAM-[…]-TAMRA, probe (SEQ ID NO: 45)) or as a control the TEF1 locus (SEQ ID NO: 56) (primers used, […], forward (SEQ ID NO: 47), […], reverse (SEQ ID NO: 48) and 6FAM-[…]-TAMRA, probe (SEQ ID NO: 49)). Reactions were run in TaqMAN universal PCR master mix (ABI life technologies) on a life technologies Quant Studio 7 instrument using the following cycling conditions 95° C. for 10 minutes followed by 40 cycles of 95° C. for 15 seconds, 60° C. for 1 minute. 6FAM fluorescence from the probes was monitored through the 40 cycles of the PCR and Ct values were collected. Relative gene copy number was determined by the ΔΔCt method (User Bulletin #2 ABI PRISM 7700 Sequence Detection System (Updated 2001)). Briefly, TEF1 Ct values were used to normalize the data for differences in cell copy number between genomic DNA samples. Genomic DNA from a wildtype strain was used as a reference for the relative quantification for the CAN1 copy number fragment (SEQ ID NO: 42). Software on the Quant studio 7 calculated relative gene copy number and corresponding error for each sample relative to the wildtype strain. The colonies were separated into two bins, those with a single relative copy of the CAN1 analysis fragment (SEQ ID NO: 42) and those with 2 or more relative copies (SEQ ID NO: 42). […] The second bin represents cells where the editing template was used to repair the Cas9/gRNA generated double-strand break at the Can1-1 target site (SEQ ID NO: 22) and was integrated at least once somewhere else in the genome via a NHEJ mechanism.

[3] = test system: Yarrowia lipolytica cells
From the text: In this example Yarrowia lipolytica cells treated with the DNA Ligase IV inhibitor, Scr7, were transformed with targeting plasmids in the presence and absence of editing templates. Homology directed repair (HDR) occurs between an editing template and the target DNA when there are two regions of homology flanking a region of interest (FIG. 3). A DNA double-stranded break at a target site within the region of interest can initiate HDR replacing the region of interest (FIG. 3, white box) with a modified region of interest carried on the editing template. In this example the modified region of interest lacks the entire open-reading frame of the CAN1 gene.
Cells were phenotypically scored for Canavanine resistance to determine overall targeting efficiency (NHEJ+HDR). Colony PCR of the CAN1 locus (SEQ ID NO: 35) was performed to differentiate repair of the Cas9/gRNA generated double-strand break by HDR or NHEJ.
Three different treatment conditions were tested: Untreated, Scr7-A, and Scr7-B (A schematic of the three treatments is shown in FIG. 4). For all three conditions a uracil auxotrophic strain of Yarrowia lipolytica ATCC20362 was used For the untreated condition the strain was grown for 24 hours on YPD medium plates (Teknova) at 30° C. (also referred to as a pretreatment). 1 loop of cells were resuspended in transformation buffer (35% polyethylene glycol average molecular weight of 3550, 100 mM lithium acetate, 100 mM dithiothreitol, 10 mM Tris, 1 mM EDTA pH 6.0). 100 μl of cell suspension was mixed with 100 ng of either pRF291 (SEQ ID NO: 18) (Cas9 expression, no gRNA) or pRF303 (SEQ ID NO: 24) (Cas9 expression, Can1-1 gRNA expression) with either no editing template or 1 μg linear editing template (SEQ ID NO: 34). Transformation mixtures were incubated at 39° C. for 1 hour at 800 RPM. Transformation mixtures were plated on complete minimal medium plates lacking uracil (Teknova) to select for cells transformed with plasmid DNA. Plates were incubated at 30° C. for 48 hours.
For treatment Scr7-A the strain was grown for 24 hours on YPD medium plates (Teknova) at 30° C. (also referred to as a pretreatment). 1 loop of cells were resuspended in modified transformation buffer (35% polyethylene glycol average molecular weight of 3550, 100 mM lithium acetate, 100 mM dithiothreitol, 10 mM Tris, 1 mM EDTA pH 6.0, 5 μM Scr7). 100 μl of cell suspension was mixed with 100 ng of either pRF291 (SEQ ID NO:18) (Cas9 expression, no gRNA) or pRF303 (SEQ ID NO: 24) (Cas9 expression, Can1-1 gRNA expression) with either no editing template or 1 μg linear editing template (SEQ ID NO: 31). Transformation mixtures were incubated at 39° C. for 1 hour at 800 RPM. Transformation mixtures were plated on complete minimal medium plates lacking uracil (Teknova) to select for cells transformed with plasmid DNA. Plates were incubated at 30° C. for 48 hours.
For treatment Scr7-B the strain was grown for 24 hours on YPD medium plates containing 5 μM Scr7 at 30° C. (also referred to as a pretreatment). 1 loop of cells were resuspended in modified transformation buffer (35% polyethylene glycol average molecular weight of 3550, 100 mM lithium acetate, 100 mM dithiothreitol, 10 mM Tris, 1 mM EDTA pH 6.0, 5 μM Scr7). 100 μl of cell suspension was mixed with 100 ng of either pRF291 (SEQ ID NO:18) (Cas9 expression, no gRNA) or pRF303 (SEQ ID NO: 24) (Cas9 expression, Can1-1 gRNA expression) with either no editing template or 1 μg linear editing template (SEQ ID NO: 31). Transformation mixtures were incubated at 39° C. for 1 hour at 800 RPM. Transformation mixtures were plated on complete minimal medium containing 5 μM Scr-7 plates lacking uracil. Plates were incubated at 30° C. for 48 hours.
For each condition, 24 colonies from each transformation were streak purified on complete minimal plates lacking uracil (Teknova) for single colonies.

[4] = Scr7 treatment A, pRF303 and linear editing template
[5] = Scr7 treatment B, pRF303 and linear editing template

## O=c1[nH]c(=S)[nH]c(N=Cc2ccccc2)c1N=Cc1ccccc1 [Scr7]
[1]; Scr7 treatment A
  Fold HDR over untreated (±SEM): 0.9 ± 0.1 fold
  HDR Frequency (±SEM): 9.7 ± 1.4
[1]; Scr7 treatment B
  Fold HDR over untreated (±SEM): 1.5 ± 0.3 fold
  HDR Frequency (±SEM): 16.7 ± 4.8
[1]; Scr7 treatment B, listed as Scr-7
  Fold HDR over untreated (±SEM): 1.5 fold
[1]; extended Scr-7 treatment B, linear editing template
  Fraction of breaks repaired via HDR, as % of the frequency of untreated or short Scr-7 treatment A: 150%
[2]; [4]
  Fraction of cells with single copy of CAN1: 0.38
  Fraction of cells with ≥2 copies of CAN1: 0.63
[2]; [5]
  Fraction of cells with single copy of CAN1: 1
  Fraction of cells with ≥2 copies of CAN1: 0
[2]; Scr-7 treatment A, pRF303 and linear editing template
  Colonies with a single copy of the CAN1 editing template: approximately 40%
[2]; Scr-7 treatment B, pRF303 and editing template
  Colonies with only a single copy of the CAN1 locus: 100%
[3]; Scr7 treatment A (5 μM Scr7 in transformation buffer), pRF291 (Cas9, no gRNA), no editing template
  Canavanine resistance frequency (±Std. Dev): 0 ± 0
[3]; Scr7 treatment A, pRF291 (Cas9, no gRNA), with editing template
  Canavanine resistance frequency (±Std. Dev): 0 ± 0
[3]; Scr7 treatment A, pRF303 (Can1-1 gRNA), no editing template
  Canavanine resistance frequency (±Std. Dev): 62.2 ± 6.7
[3]; Scr7 treatment A, pRF303 (Can1-1 gRNA), with editing template
  Canavanine resistance frequency (±Std. Dev): 64.2 ± 6.4
[3]; Scr7 treatment B (5 μM Scr7 in 24 h pretreatment, transformation buffer and selection plates), pRF291 (Cas9, no gRNA), no editing template
  Canavanine resistance frequency (±Std. Dev): 0 ± 0
[3]; Scr7 treatment B, pRF291 (Cas9, no gRNA), with editing template
  Canavanine resistance frequency (±Std. Dev): 0 ± 0
[3]; Scr7 treatment B, pRF303 (Can1-1 gRNA), no editing template
  Canavanine resistance frequency (±Std. Dev): 68.7 ± 6.3
[3]; Scr7 treatment B, pRF303 (Can1-1 gRNA), with editing template
  Canavanine resistance frequency (±Std. Dev): 64.6 ± 20.3
[3]; pRF291 (Cas9, no functional gRNA), regardless of Scr-7 treatment scheme
  Canavanine resistant cells: did not give rise to Canavanine resistance cells
